No end group written: not given here. *: point of attachment. Cbz = O=C(OCc1ccccc1)*
B1: S. mobaraensis MTG: commercially available Streptomyces mobaraensis microbial transglutaminase (protein)
chain: MRIRRRALVFATMSAVLCTAGFMPSAGEAAADNGAGEETKSYAETYRLTADDVANINALNESAPAASSAGPSFRAPDSDDRVTPPAEPLDRMPDPYRPSYGRAETVVNNYIRKWQQVYSHRDGRKQQMTEEQREWLSYGCVGVTWVNSGQYPTNRLAFASFDEDRFKNELKNGRPRSGETRAEFEGRVAKESFDEEKGFQRAREVASVMNRALENAHDESAYLDNLKKELANGNDALRNEDARSPFYSALRNTPSFKERNGGNHDPSRMKAVIYSKHFWSGQDRSSSADKRKYGDPDAFRPAPGTGLVDMSRDRNIPRSPTSPGEGFVNFDYGWFGAQTEADADKTVWTHGNHYHAPNGSLGAMHVYESKFRNWSEGYSDFDRGAYVITFIPKSWNTAPDKVKQGWP
modifications: protein-glutamine gamma-glutamyltransferase
notes: commercially available Streptomyces mobaraensis microbial transglutaminase
B2: KalbTGt3: KalbTG enzyme from EcSlyD2-Xa-KalbTGt3-8×His after factor Xa and trypsin digest (protein)
chain: APLAPPLAEDRSYRTWRVEDYVEAWERYHGREMTEDERENLARGCIGVTVVNLNREDLSNPPLNLSFGSLRTAEAVQAALNKIVDTHPSPAQYEAAVAKDPILKRLKNVVKALPSWIDSAKLKASIFSKRFYSWQNPDWSEERAHTTYRPDRETDQVDMSTYRYRARPGYVNFDYGWFDQDTNTWWHANHEEPRMVVYQSTLRHYSRPLQDFDEQVFTVAFAKKDGGGSGHHHHHHHH
modifications: synthetic peptide sequence - KalbTGt3-8xHis-tag (post-trypsin digest); K-albida_MTG; 8xHis-tag
notes: KalbTG enzyme from EcSlyD2-Xa-KalbTGt3-8×His after factor Xa and trypsin digest
B3: KalbTGt1: KalbTG enzyme without propeptide, expressed and purified with ammonium (protein)
chain: MLAPPLAEDRSYRTWRVEDYVEAWERYHGREMTEDERENLARGCIGVTVVNLNREDLSNPPLNLSFGSLRTAEAVQAALNKIVDTHPSPAQYEAAVAKDPILKRLKNVVKALPSWIDSAKLKASIFSKRFYSWQNPDWSEERAHTTYRPDRETDQVDMSTYRYRARPGYVNFDYGWFDQDTNTWWHANHEEPRMVVYQSTLRHYSRPLQDFDEQVFTVAFAKKDGHHHHHHHH
modifications: synthetic peptide sequence - KalbTGt1-8xHis; K-albida_MTG; 8xHis-tag
notes: KalbTG enzyme without propeptide, expressed and purified with ammonium

Key:
KalbTG [1] = assay: GLDH-coupled assay in solution (NADH oxidation); format: biochemical, Kutzneria albida
Method: KalbTG activity was obtained by measuring incorporation of a biotinylated amine-donor on the peptide array and rates of NADH oxidation at 340 nm and 37° C. in the presence of amine-donor substrate (500 μM) in the GLDH-coupled assay using 100 μM each of nine of the best-performing array-selected glutamine-containing substrates and of two S. mobaraensis MTG glutamine-containing substrates. […] Testing of the top sequences in Table 1 confirmed YRYRQ (SEQ ID NO: 1) and RYRQR (SEQ ID NO 14) as the top performing 5-mer substrates, with turnover rates of 3.52±0.08 pmol NADH s^−1 and 3.60±0.12 pmol NADH s^−1, respectively.
With reference to Table 2, KalbTG activity was obtained by measuring incorporation of a biotinylated glutamine-donor and rates of NADH oxidation at 340 nm and 37° C. in the presence of glutamine-donor substrate (200 μM) in the GLDH-coupled assay using 100 μM each of i) six of the top-performing array-selected lysine substrates, ii) cadaverine, and iii) preferred MTG lysine substrate ARSKL (SEQ ID NO:30). […] This is a small but significant increase over cadaverine (3.51±0.12 pmol s^−1) or ARSKL (SEQ ID NO:30) (3.87±0.31 pmol s^−1), a peptide previously established as a preferred MTG lysine donor motif on the peptide array. Additional details on the S. mobaraensis MTG substrate peptide ARSKL (SEQ ID NO:30) can be found in U.S. Provisional Patent Application Ser. No. 62/094,495 to Albert et al. filed on Dec. 19, 2014.
(§1) For the GLDH coupled assay, to determine whether the KalbTG peptides selected in the array assay were also preferred substrates in a solution reaction and to quantify cross-reactivity of KalbTG and S. mobaraensis MTG with various substrates, a continuous glutamate dehydrogenase (GLDH)-coupled assay for S. mobaraensis MTG activity (see Oteng-Pabi, et al., 2013. Analytical biochemistry 441(2): 169-173) was applied.
(§2) For glutamine substrate evaluation, the assay was performed in a transparent 96-well microtiter plate in the presence of 500 μM α-ketoglutarate, 500 μM or 1 mM cadaverine as Amine donor substituting for a lysine-containing peptide, 2 U ml^−1 of glutamate dehydrogenase (GLDH), 500 μM NADH and glutamine-containing substrate peptide (Z-[[…] (SEQ ID NO:77)], Z-[[…] (SEQ ID NO:78)], Z-[[…] (SEQ ID NO:75)], Z-[[…] (SEQ ID NO:79)], Z-[[…] (SEQ ID NO:80)], Z-[[…] (SEQ ID NO:81)], Z-[[…] (SEQ ID NO:82)], Z-[[…] (SEQ ID NO:83)], Z-[[…] (SEQ ID NO:84)], Z-[[…] (SEQ ID NO:85)], Z-[[…] (SEQ ID NO:86)], Z-[[…] (SEQ ID NO:76)] or Z-[[…] (SEQ ID NO:87)]) concentrations ranging between 0 and 1 mM in 200 mM MOPS, 1 mM EDTA pH 7.2 (total volume per well 200 μl).
For amine substrate evaluation, assay conditions were the same as for glutamine substrate evaluation with the exception that 100 μM each of amine substrate (Z-[[…] (SEQ ID NO:88)], Z-[[…] (SEQ ID NO:89)], Z-[[…] (SEQ ID NO:90)], Z-[[…] (SEQ ID NO:91)], Z-[[…] (SEQ ID NO:92)], Z-[[…] (SEQ ID NO:93)], Z-[[…] (SEQ ID NO:94)], Z-[[…] (SEQ ID NO:95)] or cadaverine) and 200 μM glutamine donor (Z-[[…] (SEQ ID NO:75)] or Z-[[…] (SEQ ID NO:76)]) were used.
Reactions were started by the addition of 5 μg ml^−1 of S. mobaraensis MTG or KalbTG and the oxidation of NADH was continuously recorded at 340 nm for 60 minutes using a Biotek Synergy H4 microplate reader, temperature controlled at 37° C., with short shaking intervals before each measurement. After a short lag phase where the GLDH was saturated by transglutaminase-mediated release of ammonia, linear rates of absorbance versus time corresponding to transglutaminase turnover were observed and subjected to Michaelis-Menten kinetic analysis. […]

S. mobaraensis MTG = assay: GLDH-coupled assay in solution (NADH oxidation); format: biochemical, Streptomyces mobaraensis; conditions: enzyme MTG; glutamine-donor 0 to 1 mM, cadaverine 1 mM, 37° C.
Method: as §1, §2
Reactions were started by the addition of 5 μg ml^−1 of S. mobaraensis MTG or KalbTG and the oxidation of NADH was continuously recorded at 340 nm for 60 minutes using a Biotek Synergy H4 microplate reader, temperature controlled at 37° C., with short shaking intervals before each measurement. After a short lag phase where the GLDH was saturated by transglutaminase-mediated release of ammonia, linear rates of absorbance versus time corresponding to transglutaminase turnover were observed and subjected to Michaelis-Menten kinetic analysis. Rates of absorbance in millioptical density units per minute (mOD min^−1) were converted into molar rates of NADH turnover (pmol s^−1) using the formula of Equation 1 (previously determined by an NADH standard curve): Turnover rate=|Absorbance rate|*1.111 (Eq. 1)

KalbTG [2] = assay: 5-mer peptide array, glutamine-substrate screening with biotinylated amine donor; format: biochemical, Kutzneria albida; conditions: incorporation of biotinylated amine-donor on 5-mer peptide array
Method: To identify potential acyl-donor and amine-donor substrates of the K. albida transglutaminase, high-throughput screening on 5-mer peptide arrays was performed (FIGS. 4A and 4B). An activity of at least 1.65 U/mg for both the SlyD-fused and the mature KalbTG enzymes was confirmed by commercial assay (Zedira MTG-ANiTA-KIT; compared to 4.3 U mg^−1 by the MTG supplied with the kit and a 0.07 U/mg blank value with BSA). The assay used β-casein as a cross-linking substrate and detected deamidation by a glutamate dehydrogenase dependent oxidation of NADPH. Specific recognition motifs were identified by assaying KalbTG with peptide arrays prepared by maskless array synthesis (U.S. Pat. Pub. No 2015/0185216 to Albert et al. filed on 19 Dec. 2014). The efficiency of the transamidation reaction between 1.4 million unique 5-mer peptides and a biotinylated amine donor was quantified on two arrays in parallel and the sequences of the peptides with the highest turnovers were determined (FIG. 4A). The nine best peptides were resynthesized and tested for KalbTG activity in a standalone GLDH-coupled assay. Note that the array signal for the sequence MLAQG (SEQ ID NO:13) is marked not applicable (n. a.) as this sequence was not included on the array. Similarly, measurement of a background signal was only applicable to experiments performed on the array.
For construction of the peptide array, a library of 1,360,732 unique 5-mer peptides was designed by using all combinations of 18 natural amino acids excluding cysteine and methionine, as well as any dimer or a longer repeat of the same amino acid, and any peptide containing a dipeptide selected from HR, RH, HK, KH, RK, KR, HP, and PQ sequences. The library was synthesized in duplicate on the same array by using maskless light-directed peptide array synthesis. Each 5-mer peptide was flanked on both the N-terminus and C-terminus by 3 amino acid-long linkers synthesized by using mixture of glycine and serine having a 3:1 ratio.
To test KalbTG specificity for glutamine-containing substrate, N-(biotinyl)cadaverine was used as a substitute for a lysine substrate to biotinylate glutamine-peptides on a peptide array. KalbTG labeling reaction was performed in 1200 μL 100 mM Tris-HCl pH 8, 1 mM DTT, 50 μM N-(biotinyl)cadaverine, 0.2 ng μl^−1 KalbTG in SecureSeal™ chamber (Grace Bio-Labs) at 37° C. for 45 minutes. After incubation the chamber was removed and the array was washed in 20 mM Tris-HCl, pH7.8, 0.2 M NaCl, 1% SDS for 1 minute followed by a 1 minute wash in 20 mM Tris-HCl. Biotin linked to the array was stained with 0.3 μg ml^−1 Cy5-streptavidin in 10 mM Tris-HCl, pH7.4, 1% alkali-soluble casein, 0.05% TWEEN-20 non-ionic detergent at room temperature for 1 hour. Cy5 fluorescence intensity was measured with a fluorescence scanner at a resolution of 2 μm and a wavelength of 635 nm.

[3] = system: Z-[GGGYRYRQGGGG (SEQ ID NO:75)]-OH; assay: GLDH assay of transglutaminase enzyme activity after storage; format: biochemical; conditions: 200 μM glutamine substrate, 10 mM cadaverine, 37° C., pH 7.4
Method: A further experiment was performed to determine the activity of KalbTG enzymes prepared from two different constructs, and stored at two different temperatures. The KalbTGt3 (SEQ ID NO:10) and KalbTGt1 (SEQ ID NO: 12) enzymes tested were obtained respectively from the EcSlyD2-Xa-KalbTGt3-8×His-tag construct (SEQ ID NO:8) and the EcSlyD2-Xa-KalbTGt1-8×His-tag construct (SEQ ID NO:11) described in Example 3. The activity of the two KalbTG enzymes was tested after storage at either 4° C. or −20° C. and compared against the activity of commercially available S. mobaraensis MTG according to a published protocol (Oteng-Pabi, et al., 2013. Analytical biochemistry 441(2): 169-173). In particular, assays were performed at 37° C. in 200 μl total volume. The assay mixture included 200 mM MOPS, 1 mM EDTA, and 1 mM DTT at pH 7.4. Further, α-ketoglutarate and NADH were added at a concentration of 500 μM, along with 2 U/ml GLDH, and between 0.1 μg and 1.0 μg of one of the transglutaminase enzymes. The glutamine substrate was 200 μM Z-[[…] (SEQ ID NO:75)]-OH, and the amine donor was 10 mM cadaverine, where Z represents a carboxybenzyl group. All data were collected in triplicate (average of 3 wells in a microtiter plate) and baseline activity (buffer without enzyme) subtracted.

[4] = enzyme KalbTG, glutamine-donor 0 to 1 mM, cadaverine 1 mM, 37° C.

Molecule	Km (S. mobaraensis MTG)	Vmax (S. mobaraensis MTG)	kcat (S. mobaraensis MTG)	Array signal (log2) (KalbTG [2])	Activity ([3]; storage −20 ° C.)	Activity ([3]; storage 4 ° C.)	other results
YRYRQ (Cbz-YRYRQ) [KalbTG glutamine-donor (Q-tag) 5-mer]	644 ± 58.4 µM	21.50 ± 1.00 pmol/s	0.93 S^−1	8.99 log2	–	–	Reaction rate in solution (KalbTG [1]; 100 μM glutamine-containing substrate, 500 μM amine-donor substrate, NADH oxidation at 340 nm, 37° C.): 3.52 ± 0.08 pmol/s; Km (KalbTG [1]; enzyme KalbTG): 2000 µM; Km (KalbTG [1]; [4]): 2150 ± 291 µM; Vmax (KalbTG [1]; [4]): 73.18 ± 7.27 pmol/s; kcat (KalbTG [1]; [4]): 1.92 S^−1
DYALQ (Cbz-DYALQ) [preferred S. mobaraensis MTG glutamine-containing substrate, reference compound]	847 ± 138 µM	36.66 ± 3.33 pmol/s	1.39 S^−1	7.22 log2	–	–	reactivity of KalbTG towards substrate (KalbTG [1]; kinetics, varying substrate concentrations): completely unreactive
B1	–	–	–	–	1.1348 ± 0.0059 μmol NH3/min/mg Enzyme	–	–
B2	–	–	–	–	0.1528 ± 0.0400 μmol NH3/min/mg Enzyme	0.1501 ± 0.0011 μmol NH3/min/mg Enzyme	–
B3	–	–	–	–	0.8630 ± 0.0259 μmol NH3/min/mg Enzyme	1.4099 ± 0.1806 μmol NH3/min/mg Enzyme	–
